Results published in patent US8871815B2, “Therapeutic compounds” (Signature Therapeutics, Inc., priority 2007, dated 2014).

Key:
rats = test: Separate rat study, bolus IV, 1% in cremaphor, sleep time; assay type: in vivo; conditions: 7 mg/kg bolus IV, rats
[1] = Pharmacokinetic study in domestic pigs, IV infusion; assay type: in vivo, pig
mongrel dogs = test: Anesthetic and hemodynamic effects in chronically instrumented mongrel dogs, total intravenous anesthesia; assay type: in vivo, dog
Protocol: Assessments included hemodynamic performance parameters such as blood pressure, heart rate, and cardiac output as well as clinical chemistry parameters and EEG analysis.
General anesthesia was induced in the dogs by IV administration of 7 mg/kg […], and the dogs were tracheally intubated and mechanically ventilated. General anesthesia was maintained using 2.2% end-tidal sevoflurane in oxygen. A thoracotomy was performed at the fifth left intercostal space, and heparin-filled catheters were placed in the proximal descending thoracic aorta (P50 pressure transducer Gould, Oxnard, Calif.), and in the right and left atria to provide IV access. An ultrasonic transit-time flow probe (T108, Transonic Systems, Ithaca, N.Y.) was placed around the ascending thoracic aorta. A […] Doppler flow probe (Model HDP-20-3.5, Triton Surgical Technologies, San Diego, Calif.) was placed around the left anterior descending coronary artery. Six MHz sonomicrometer crystals (Hartley, Houston, Tex.) were implanted in the subendocardium. A high fidelity micromanometer (P7, Konigsberg Instruments, Pasadena, Calif.) was inserted into the left ventricle. […]
The dogs were fasted overnight. […] EEG was recorded continuously during the experiment. Arterial blood gas and chemistry measures included pH, pO2, sO2, pCO2, tCO2, carbonate, potassium, sodium, and base excess, and were measured immediately following blood draws using a blood gas and chemistry analyzer (ABL-505, Radiometer, Copenhagen). […] Following stabilization, baseline measurements of EEG, hemodynamics, ECG, and blood gases were recorded. Blood samples were drawn for PK and clinical chemistry, and pressure volume loops were generated and data recorded.
Following induction, the dogs were tracheally intubated, and mechanically ventilated using 50% oxygen in nitrogen throughout the subsequent drug infusion and recovery periods. […] MAP was monitored continuously, and dosing was discontinued immediately if MAP decreased below 50 mmHg at any time or if the heart rate increased over 200 beats per minute. […]

CC[C@@H](C)c1cccc([C@H](C)CC)c1O [Compound 1]
Sleep Time (duration of anesthesia) (rats): 23 min
Clearance ([1]; pig, IV infusion): exceeded estimated hepatic blood flow
metabolic pathway ([1]; pigs): glucuronidation in the 1-position with the 4-position being subject to hydroxylation followed by glucuronide and sulfate conjugation
MAP and heart rate results compared to propofol (mongrel dogs): no statistically significant differences
Cardiac output versus baseline (mongrel dogs; IV bolus then stepwise IV infusions 0.25-2.0 mg/kg/min): no statistically significant reduction
